Where two headings read alike, the source gives them in different places. Where a SMILES comes first, the peptide text is derived from it. Bridges are numbered along the chain shown (N, C = ends). [ ]: non-standard residue; d: D form. The star is where a group is joined. X2 = NCCCC[C@H](NC(=O)CCC(=O)NCCCOCCOCCOCCCN*)C(=O)N[C@@H](CCCCN)C(=O)N[C@@H](CCCCNC(=O)CCCC[C@@H]1SC[C@@H]2NC(=O)N[C@@H]21)C(N)=O; Tle = CC(C)(C)[C@H](N)C(=O)O; hCys = N[C@@H](CCS)C(=O)O; Aib = CC(C)(N)C(=O)O
Experiments:
TFPI [1] = biological target: T1, TFPI (Homo sapiens, UniProt P10646); assay: Extrinsic Tenase Inhibition by TFPI | % Inhibit (2.5µM); conditions: read-out: Extrinsic Tenase Inhibition by TFPI | % Inhibit ([…])
Target sequence in this assay (P10646 29-304 limits assumed): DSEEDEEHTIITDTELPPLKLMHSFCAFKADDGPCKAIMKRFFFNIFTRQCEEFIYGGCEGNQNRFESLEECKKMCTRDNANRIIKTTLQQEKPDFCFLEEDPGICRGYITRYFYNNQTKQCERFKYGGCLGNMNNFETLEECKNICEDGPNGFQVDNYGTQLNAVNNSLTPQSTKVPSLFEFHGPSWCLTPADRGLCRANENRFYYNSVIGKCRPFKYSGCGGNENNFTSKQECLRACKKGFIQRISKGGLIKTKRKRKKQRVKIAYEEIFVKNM

[2] = biological target: T2, Tissue Factor Pathway Inhibitor (TFPI) (Homo sapiens, UniProt P10646); assay: Progress Curves of Inhibition of FXa | % Inhibit (2.5µM)
TFPI [3] = biological target: T1, TFPI; assay: Extrinsic Tenase Inhibition by TFPI | % Inhibit (2.5µM)
TFPI [4] = biological target: T1, TFPI; assay: as above; remark: listed apart in the source
TFPI [5] = biological target: T1, TFPI; assay: % Inhibition @ 2.5µM
[6] = biological target: T2, Tissue Factor Pathway Inhibitor (TFPI); assay: IC50 ELISA | IC50 [nM]
Target sequence in this assay (P10646 29-304 limits assumed): as above

[7] = biological target: recombinant human full length TFPI (Homo sapiens, UniProt P10646); assay: Progression curve | EC50 (µM)
recombinant human full length TFPI, sequence (P10646 29-304 limits assumed): as above
Description: Table printed on a drawing sheet, FIGURE 62F
Head of the field: Progression curve | EC50 (µM)
Designation “n.a.” is “not analyzed.” Progression curve data were obtained using the FXa inhibition assay described in Example 3 with recombinant human full length TFPI. Assay concentration of progression curve assay was 0.0025% (0.1% Tween80 used in peptide dilution buffer).
First copying reader's note: Last part (62F) of a table continued over FIG. 62A-62F.

[8] = tested on: thrombin generation in FVIII- or FIX-deficient or FVIII-inhibited plasma; assay: plasma-based thrombin generation assay (calibrated automated thrombography); type: biochemical, human
TFPI [9] = biological target: T1, TFPI; assay: BiaCore | kon (1/Ms); conditions: read-out: BiaCore | kon (1/Ms)
Target sequence in this assay (P10646 29-304 limits assumed): as above

TFPI [10] = biological target: T1, TFPI; assay: koff (1/s); conditions: read-out: koff (1/s)
Target sequence in this assay (P10646 29-304 limits assumed): as above

TFPI [11] = biological target: T1, TFPI; assay: KD (M)
Target sequence in this assay (P10646 29-304 limits assumed): as above

TFPI [12] = biological target: T1, TFPI; assay: Progress Curves of Inhibition of FXa | EC50 (µM)
Target sequence in this assay (P10646 29-304 limits assumed): as above

TFPI [13] = biological target: T1, TFPI; assay: Extrinsic Tenase Inhibition by TFPI | EC50 (µM)
Target sequence in this assay (P10646 29-304 limits assumed): as above

human plasma = conditions: up to 24 hour

For CC[C@H](C)[C@H](NC(=O)[C@H](CC(=O)O)NC(=O)[C@@H]1CCCN1C(=O)[C@H](Cc1c[nH]c2ccccc12)NC(=O)[C@H](CCSC)NC(=O)[C@@H](NC(=O)[C@H](Cc1c[nH]c2ccccc12)NC(=O)[C@H](Cc1ccccc1)NC(=O)[C@H](Cc1ccc(O)cc1)NC(=O)[C@H](CCCNC(=N)N)NC(=O)[C@@H]1CCCN1C(=O)[C@H](Cc1c[nH]cn1)NC(=O)[C@@H](NC(=O)[C@H](CCC(N)=O)NC(=O)[C@H](Cc1c[nH]c2ccccc12)NC(=O)[C@@H](NC(=O)CNC(=O)[C@H](CO)NC(=O)[C@H](CCCCN)NC(=O)[C@H](CCCCN)NC(C)=O)C(C)C)[C@@H](C)O)[C@@H](C)O)C(=O)N[C@@H](CCCCN)C(=O)NCC(=O)N[C@@H](CCC(=O)O)C(=O)N[C@H](C(=O)N[C@H](C(=O)N[C@H](C(=O)N[C@@H](CC(C)C)C(=O)N[C@@H](Cc1ccccc1)C(=O)NCC(=O)N[C@H](C(=O)N[C@@H](CO)C(=O)NCCCOCCOCCOCCCNC(=O)CCC(=O)N[C@@H](CCCCN)C(=O)N[C@@H](CCCCN)C(=O)N[C@@H](CCCCNC(=O)CCCC[C@@H]1SC[C@@H]2NC(=O)N[C@@H]21)C(N)=O)[C@@H](C)O)C(C)C)[C@@H](C)CC)C(C)C [JBT0103] (Ac-KKSGVWQTHPRYFWTMWPDIKGEVIVLFGTS-X2), the inhibition at […] (TFPI [1]) was 21%.
For “Ac- KKPLAVQLHVSKRSKEMALARLYYKTSKK- NH2 (SEQ ID NO: 2129) (Ac-KKPLAVQLHVSKRSKEMALARLYYKTSKK-NH2) [JBT0229]”, the “Progress Curves of Inhibition of FXa | % Inhibit ([…])” value [2] was 0% and the “Extrinsic Tenase Inhibition by TFPI | % Inhibit ([…])” value (TFPI [3]) was 0%.
In the case of “Ac-ASFPLAVQLHVSKRSKE-NH2 (SEQ ID NO: 2313) [JBT0363]”, the “Extrinsic Tenase Inhibition by TFPI | % Inhibit ([…])” value (TFPI [4]) is reported as 9% and the “% Inhibition @ […]” value (TFPI [5]) is reported as 0%.
Molecule CC(=O)N[C@@H](Cc1ccccc1)C(=O)N[C@@H](CCC(N)=O)C(=O)N[C@@H](CO)C(=O)N[C@@H](CCCCN)C(=O)N1CCC[C@@H]1C(=O)N[C@@H](CC(N)=O)C(=O)N[C@H](C(=O)N[C@@H](Cc1c[nH]cn1)C(=O)N[C@H](C(=O)N[C@@H](CC(=O)O)C(=O)N[C@@H]1CSSCC[C@@H](C(=O)N[C@@H](CCCNC(=N)N)C(=O)N[C@@H](CC(C)C)C(=O)NC(C)(C)C(=O)N[C@@H](C)C(=O)N[C@@H](CCCCN)C(=O)N[C@@H](CC(C)C)C(N)=O)NC(=O)[C@H](Cc2ccccc2)NC(=O)[C@H](Cc2ccc(O)cc2)NC1=O)C(C)(C)C)C(C)C [JBT2494 | 4209, Ac-FQSKpNVH-Tle-D[cYF-Hcy-]RL-Aib-AKL-NH2] (Ac-FQSK[dP]NVH[Tle]D[dC]YF[hCys]RL[Aib]AKL-NH2; disulfide 11-14) has an IC50 [6] of 2.84 nM and an EC50 [7] of 2 nM.
With CSCC[C@@H]1NC(=O)CNC(=O)[C@@H](NC(=O)[C@H](Cc2ccccc2)NC(=O)[C@H](Cc2c[nH]c3ccccc23)NC(=O)[C@H](CCCCN)NC(=O)[C@H](Cc2ccc(O)cc2)NC(=O)[C@H](CCCNC(=N)N)NC(=O)[C@H](CO)NC(=O)[C@H](C)NC(=O)CNC(=O)[C@H](CO)NC(C)=O)CSSC[C@@H](C(=O)N[C@H](C(=O)N[C@@H](Cc2c[nH]c3ccccc23)C(=O)N[C@H](C(=O)N[C@@H](CCCCN)C(=O)N[C@@H](Cc2ccccc2)C(=O)N[C@@H](CCCNC(=N)N)C(=O)N[C@@H](Cc2ccc(O)cc2)C(=O)N[C@@H](CC(=O)O)C(=O)N[C@H](C(=O)N[C@@H](CO)C(N)=O)[C@@H](C)O)C(C)C)C(C)C)NC(=O)[C@H](CO)NC(=O)[C@H](CCSC)NC(=O)[C@H]([C@@H](C)O)NC(=O)CNC(=O)[C@H](CCCCN)NC(=O)[C@H](CCSC)NC(=O)[C@H](CC(=O)O)NC(=O)[C@H](CCCNC(=N)N)NC1=O [JBT0120] the “peak thrombin and peak time” value ([8]; FIGS. 11A and 11B) was “improved peak thrombin and peak time, dose dependently”.
For CC(=O)N[C@@H](Cc1ccccc1)C(=O)N[C@@H](CCC(N)=O)C(=O)N[C@@H](CO)C(=O)N[C@@H](CCCCN)C(=O)N1CCC[C@@H]1C(=O)N[C@@H](CC(N)=O)C(=O)N[C@H](C(=O)N[C@@H](Cc1c[nH]cn1)C(=O)N[C@H](C(=O)N[C@@H](CC(=O)O)C(=O)N[C@@H]1CSSC[C@@H](C(=O)N[C@@H](CCCNC(=N)N)C(=O)N[C@@H](CC(C)C)C(=O)NC(C)(C)C(=O)N[C@@H](C)C(=O)N[C@@H](CCCCN)C(=O)N[C@@H](CC(C)C)C(N)=O)NC(=O)[C@H](Cc2ccccc2)NC(=O)[C@H](Cc2ccc(O)cc2)NC1=O)C(C)(C)C)C(C)C [JBT2495 | 4210, Ac-FQSKpNVH-Tle-D[cYFC]RL-Aib-AKL-NH2] (Ac-FQSK[dP]NVH[Tle]D[dC]YFCRL[Aib]AKL-NH2; disulfide 11-14), the IC50 [6] was 3.48 nM and the EC50 [7] was 2.1 nM.
CSCC[C@@H]1NC(=O)CNC(=O)[C@@H](NC(=O)[C@H](Cc2ccccc2)NC(=O)[C@H](Cc2c[nH]c3ccccc23)NC(=O)[C@H](CCCCN)NC(=O)[C@H](Cc2ccc(O)cc2)NC(=O)[C@H](CCCNC(=N)N)NC(=O)[C@H](CO)NC(=O)[C@H](C)NC(=O)CNC(=O)[C@H](CO)NC(C)=O)CSSC[C@@H](C(=O)N[C@H](C(=O)N[C@@H](Cc2c[nH]c3ccccc23)C(=O)N[C@H](C(=O)N[C@@H](CCCCN)C(N)=O)C(C)C)C(C)C)NC(=O)[C@H](CO)NC(=O)[C@H](CCSC)NC(=O)[C@H]([C@@H](C)O)NC(=O)CNC(=O)[C@H](CCCCN)NC(=O)[C@H](CCSC)NC(=O)[C@H](CC(=O)O)NC(=O)[C@H](CCCNC(=N)N)NC1=O [JBT0320] (Ac-SGASRYKWFCGMRDMKGTMSCVWVK-NH2; disulfide 10-21) gave a kon (TFPI [9]) of 178000 M⁻¹ s⁻¹, a koff (TFPI [10]) of 0.0425 s⁻¹ and a Kd (TFPI [11]) of 238 nM. The EC50 (TFPI [12]) was 18800 nM and the EC50 (TFPI [13]) was 6400 nM.
In the case of Ac-FQSKpNVHVDGYFERL-Aib-AKL-NH2, the cleaved bond (human plasma) is reported as “Val9-Asp10”.
In the case of CC(=O)N[C@@H](CO)C(=O)NCC(=O)N[C@H](C(=O)NCC(=O)N[C@@H](CCCNC(=N)N)C(=O)N[C@@H](CC(C)C)C(=O)N[C@@H](CCC(N)=O)C(=O)N[C@H](C(=O)N[C@@H](C)C(=O)N[C@@H](Cc1ccccc1)C(=O)N[C@@H](CCC(N)=O)C(=O)N[C@@H](CO)C(=O)N[C@@H](CCCCN)C(=O)N[C@@H](CCCCN)C(=O)N[C@@H](CC(N)=O)C(=O)N[C@H](C(=O)N[C@@H](Cc1ccccc1)C(=O)N[C@H](C(=O)N[C@@H](Cc1ccccc1)C(=O)NCC(=O)N[C@@H](Cc1ccc(O)cc1)C(=O)N[C@@H](CC(C)C)C(=O)N[C@@H](Cc1ccccc1)C(=O)N[C@@H](CCC(=O)O)C(=O)N[C@@H](CCCNC(=N)N)C(=O)N[C@@H](CC(C)C)C(=O)N[C@@H](CCCNC(=N)N)C(=O)N[C@@H](C)C(=O)N[C@@H](CCCCN)C(=O)N[C@@H](CC(C)C)C(=O)N[C@H](C(=O)N[C@@H](CO)C(N)=O)[C@@H](C)O)C(C)C)C(C)C)C(C)C)C(C)C [JBT0047] (Ac-SGVGRLQVAFQSKKNVFVFGYLFERLRAKLTS-NH2), the “FVIII-equivalent activity (mU/ml) in Hem A plasma @ 1 μM peptide” value [8] is reported as 45 mU/ml.
